# Test results from paper PMC9781003, “Two Antenna-Enriched Odorant Binding Proteins in Dioryctria abietella Tuned to General Odorants and Insecticides” (Insects, 2022).
# Assays:
# DabiOBP5 = target: T1, DabiOBP5 (Dioryctria abietella, UniProt A0A8E6HS34); test: Competitive fluorescence binding assay with 1-NPN probe, recombinant DabiOBP5; conditions: for inhibition at 20 µM: read-out: OBP5 F.D. (%) fluorescence displacement percent
# T1 sequence (A0A8E6HS34 19-139): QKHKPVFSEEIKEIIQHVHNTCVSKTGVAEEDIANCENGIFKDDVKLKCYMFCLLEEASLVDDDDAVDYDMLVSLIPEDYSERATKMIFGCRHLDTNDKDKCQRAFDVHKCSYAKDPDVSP
# Description: In the binding assays, we selected 100 compounds derived from host/non-host plants and man-made insecticides widely used for the control of lepidopteran pests, representing 88 general odorants (21 esters, 21 alcohols, 14 aldehydes, 13 alkenes, seven ketones, 11 alkanes and one acid) and 12 insecticides. These compounds and N-phenyl-1-naphthylamine (1-NPN) were purchased from Aladdin and Sigma-Aldrich, with the highest available purity. […] The concentrations of the work solution for each ligand and 1-NPN were set at 1 mM.
# In order to measure the binding properties of the DabiOBPs to the 100 ligands, competitive binding assays were performed on a RF5301PC fluorescence spectrophotometer (Shimadzu, Japan). The concentrations of DabiOBPs and the fluorescent probe 1-NPN were set at 2 μM. […] Accordingly, binding constants (K1-NPN) of the DabiOBPs and 1-NPN were calculated using GraphPad Prism 7 (GraphPad Software Inc., San Diego, CA). […] For the ligands replacing over a half of 1-NPN fluorescence (50%) at 20 μM, three replicates were performed. The excitation wavelength was set at 337 nm and the emission peaks were recorded at around 400 nm.
# DabiOBP14 = type: binding, Dioryctria abietella; conditions: for OBP14 F.D. (%) fluorescence displacement percent: ligand at 20 μM, DabiOBP14/1-NPN each 2 μM, Tris-HCl pH 7.4, NB = no binding
# Protocol: In the binding assays, we selected 100 compounds derived from host/non-host plants and man-made insecticides widely used for the control of lepidopteran pests, representing 88 general odorants (21 esters, 21 alcohols, 14 aldehydes, 13 alkenes, seven ketones, 11 alkanes and one acid) and 12 insecticides. These compounds and N-phenyl-1-naphthylamine (1-NPN) were purchased from Aladdin and Sigma-Aldrich, with the highest available purity. They were first diluted into 100 mM, using methanol (HPLC purity grade, ≥99.9%) as a stock solution. The concentrations of the work solution for each ligand and 1-NPN were set at 1 mM.
# In order to measure the binding properties of the DabiOBPs to the 100 ligands, competitive binding assays were performed on a RF5301PC fluorescence spectrophotometer (Shimadzu, Japan). The concentrations of DabiOBPs and the fluorescent probe 1-NPN were set at 2 μM. The binding of DabiOBPs to 1-NPN in 20 mM Tris-HCl buffer (pH 7.4) was measured by adding final concentrations of 2–16 μM 1-NPN. Accordingly, binding constants (K1-NPN) of the DabiOBPs and 1-NPN were calculated using GraphPad Prism 7 (GraphPad Software Inc., San Diego, CA). The binding of the DabiOBPs to various ligands was conducted by adding different concentrations of ligands (2, 4, 6, 8, 12, 16 and 20 μM) into the DabiOBP5/1-NPN (each 2 μM) or DabiOBP14/1-NPN (each 2 μM) mixtures. For the ligands replacing over a half of 1-NPN fluorescence (50%) at 20 μM, three replicates were performed. The excitation wavelength was set at 337 nm and the emission peaks were recorded at around 400 nm. The dissociation constants (Ki) of the tested ligands to DabiOBPs were computed, using the equation: Ki = [IC50]/(1 + [1-NPN]/K1-NPN), where [1-NPN] was the free concentration of 1-NPN and IC50 was the concentration of ligands replacing 50% of 1-NPN fluorescence.
# [1] = ligand at 20 μM, DabiOBP5/1-NPN each 2 μM, Tris-HCl pH 7.4, NB = no binding
SMILES,inhibition at 20 µM (DabiOBP5; [1]) [%],OBP14 F.D. (%) fluorescence displacement percent (DabiOBP14) [%],"Kd (DabiOBP5; 2 μM protein, 2–16 μM 1-NPN, 20 mM Tris-HCl pH 7.4, read-out: K1-NPN binding constant of DabiOBP5 and 1-NPN) [µM]","Kd (DabiOBP14; 2 μM protein, 2–16 μM 1-NPN, 20 mM Tris-HCl pH 7.4, read-out: K1-NPN binding constant of DabiOBP14 and 1-NPN) [µM]",OBP5 F.D. (%) fluorescence displacement percent (DabiOBP5; [1]) [%]
CC(C)=CCCC(C)=CC=O (mixture of isomers) [Citral],39,32.25,,,
C=CC(C)(O)CCC=C(C)CCC=C(C)C (mixture of isomers) [Nerolidol],34.6,37.52,,,
CCCCCCCCCCO [1-Decanol],31.4,31.32,,,
CCCCCCCCCCCCO [1-Dodecanol],38.7,28.55,,,
CCCCCCCO [1-Heptanol],39.3,39.10,,,
CCCCCCCCCCCCCCCCO [1-Hexadecanol],37,31.97,,,
CCCCCCO [1-Hexanol],38.9,40.27,,,
"c1ccc(Nc2cccc3ccccc23)cc1 [1-NPN, N-phenyl-1-naphthylamine]",,,7.49 ± 0.69,4.5 ± 0.42,
CCCCCCCCCO [1-Nonanol],39.6,29.98,,,
CCCCCCCCO [1-Octanol],35,35.51,,,
CCCCCCCCCCCO [1-Undecanol],37.7,,,,
C=CCCCCCCCCC [1-Undecene],17.4,,,,
CCCCCC(C)O (stereo not drawn) [2-Heptanol],13.9,24.86,,,
CCCCCC(C)=O [2-Heptanone],36.5,33.53,,,
CCCCC(C)=O [2-Hexanone],43.1,27.57,,,
CCC(C)CO (stereo not drawn) [2-Methyl-1-butanol],36,27.78,,,
CCCCCCCCCCCC(C)=O [2-Tridecanone],35.6,32.61,,,
CC1=CCC2C(C1)C2(C)C (stereo not drawn) [3-Carene],41.6,29.92,,,
CCCC(=O)CC [3-Hexanone],25.3,36.58,,,
CC(C)=CCO [3-Methyl-2-buten-1-ol],37,34.58,,,
CCCCC=CCCO [3-Octenol],25.1,31.31,,,
CC(C)=CCCC(C)O (stereo not drawn) [6-Methyl-5-hepten-2-ol],41.4,33.49,,,
CC(=O)CCC=C(C)C [6-Methyl-5-hepten-2-one],40.3,34.39,,,
CC(=O)c1ccccc1 [Acetophenone],38.8,36.22,,,
CCCCCOC(C)=O [Amyl acetate],,25.00,,,26.33
